In PubChem BioAssay AID192 (DTP/NCI, 2004):
Values joined by “and” are separate entries in the source; they are usually repeats but may differ in a detail not shown here. Equal values may be shown once. Inconclusive results and toxic doses are left out. Rule for the calls: active = survival T/C of 150% or more; inactive = T/C below 125% in these data.

Test system: BDF1 mice, B16 melanoma ip, median survival T/C
Test: NCI In Vivo Anticancer Drug Screen. Data for tumor model B16 Melanoma (intraperitoneal) in B6D2F1 (BDF1) mice
Conditions: endpoint: median survival time, higher = longer survival
How it was run: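 Vehicle-treated animals serve as the reference (C); treated animals (T) are scored for survival or tumor size after tumor transplantation.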

[1] = dose: 50.0 mg/kg/injection, schedule: Q01DX009 (ip), vehicle: Klucel (hydroxypropylcellulose) (HPC)
[2] = dose: 100.0 mg/kg/injection, schedule: Q01DX009 (ip), vehicle: Klucel (hydroxypropylcellulose) (HPC)
[3] = dose: 200.0 mg/kg/injection, schedule: Q01DX009 (ip), vehicle: Klucel (hydroxypropylcellulose) (HPC)
[4] = dose: 50.0 mg/kg/injection, schedule: Q01DX009 (ip), vehicle: saline with Tween-80
[5] = dose: 100.0 mg/kg/injection, schedule: Q01DX009 (ip), vehicle: saline with Tween-80

Measured: T/C

Nc1ncn(C2CC(O)C(CO)O2)c(=O)n1 (stereo unspecified)
inactive: dose: 0.01 mg/kg/injection, schedule: Q01DX009 (ip), vehicle: Klucel (hydroxypropylcellulose) (HPC) 98 % of control | dose: 0.03 mg/kg/injection, schedule: Q01DX009 (ip), vehicle: Klucel (hydroxypropylcellulose) (HPC) 109 % of control | dose: 0.05 mg/kg/injection, schedule: Q01DX009 (ip), vehicle: Klucel (hydroxypropylcellulose) (HPC) 99 % of control | dose: 0.06 mg/kg/injection, schedule: Q01DX009 (ip), vehicle: Klucel (hydroxypropylcellulose) (HPC) 98 % of control | dose: 0.1 mg/kg/injection, schedule: Q01DX009 (ip), vehicle: Klucel (hydroxypropylcellulose) (HPC) 100 % of control | dose: 0.12 mg/kg/injection, schedule: Q01DX009 (ip), vehicle: Klucel (hydroxypropylcellulose) (HPC) 105 % of control | dose: 0.2 mg/kg/injection, schedule: Q01DX009 (ip), vehicle: Klucel (hydroxypropylcellulose) (HPC) 100 % of control | dose: 0.25 mg/kg/injection, schedule: Q01DX009 (ip), vehicle: Klucel (hydroxypropylcellulose) (HPC) 102 % of control | dose: 0.4 mg/kg/injection, schedule: Q01DX009 (ip), vehicle: Klucel (hydroxypropylcellulose) (HPC) 105 % of control | dose: 0.5 mg/kg/injection, schedule: Q01DX009 (ip), vehicle: Klucel (hydroxypropylcellulose) (HPC) 104 % of control | dose: 0.8 mg/kg/injection, schedule: Q01DX009 (ip), vehicle: Klucel (hydroxypropylcellulose) (HPC) 122 % of control

CSCCCCCCSC
inactive: [1] 93 % of control | [2] 105 % of control | [3] 106 % of control

O=c1[nH]c(=O)n(C2CC(O)C(CO)O2)cc1Br (stereo unspecified)
inactive: dose: 25.0 mg/kg/injection, schedule: Q01DX009 (ip), vehicle: Klucel (hydroxypropylcellulose) (HPC) 101 % of control | [1] 117 % of control

COc1ccc(N=NNc2ccc(OC)cc2)cc1
inactive: dose: 5.0 mg/kg/injection, schedule: Q01DX009 (ip), vehicle: saline with Tween-80 106 % of control | dose: 6.25 mg/kg/injection, schedule: Q01DX009 (ip), vehicle: saline with Tween-80 90 % of control and 94 % of control | dose: 6.25 mg/kg/injection, schedule: Q04DX003 (ip), vehicle: saline with Tween-80 97 % of control and 105 % of control | dose: 10.0 mg/kg/injection, schedule: Q01DX009 (ip), vehicle: saline with Tween-80 109 % of control | dose: 12.5 mg/kg/injection, schedule: Q01DX009 (ip), vehicle: saline with Tween-80 86 % of control and 94 % of control | dose: 12.5 mg/kg/injection, schedule: Q04DX003 (ip), vehicle: saline with Tween-80 107 % of control and 113 % of control | dose: 16.5 mg/kg/injection, schedule: Q04DX003 (ip), vehicle: saline with Tween-80 95 % of control | dose: 20.0 mg/kg/injection, schedule: Q01DX009 (ip), vehicle: saline with Tween-80 109 % of control | dose: 25.0 mg/kg/injection, schedule: Q01DX009 (ip), vehicle: saline with Tween-80 93 % of control and 94 % of control | dose: 25.0 mg/kg/injection, schedule: Q04DX003 (ip), vehicle: saline with Tween-80 100 % of control and 107 % of control | dose: 37.5 mg/kg/injection, schedule: Q04DX003 (ip), vehicle: saline with Tween-80 100 % of control | dose: 40.0 mg/kg/injection, schedule: Q01DX009 (ip), vehicle: saline with Tween-80 112 % of control | [4] 97 % of control | dose: 50.0 mg/kg/injection, schedule: Q04DX003 (ip), vehicle: saline with Tween-80 110 % of control

CC(C)c1ccc(C(O)C2CC2)cc1 (stereo unspecified)
inactive: [4] 110 % of control | [5] 102 % of control

Cc1ccc(N=C(c2ccc([N+](=O)[O-])cc2)c2ccc([N+](=O)[O-])cc2)cc1
inactive: [2] 111 % of control | [3] 97 % of control | dose: 400.0 mg/kg/injection, schedule: Q01DX009 (ip), vehicle: Klucel (hydroxypropylcellulose) (HPC) 91 % of control

CN(C)N=Nc1ccnc2c(Cl)cccc12
inactive: dose: 10.8 mg/kg/injection, schedule: Q01DX009 (ip), vehicle: DMSO 101 % of control | dose: 18.0 mg/kg/injection, schedule: Q01DX009 (ip), vehicle: DMSO 103 % of control | dose: 30.0 mg/kg/injection, schedule: Q01DX009 (ip), vehicle: DMSO 101 % of control | dose: 50.0 mg/kg/injection, schedule: Q01DX009 (ip), vehicle: DMSO 99 % of control

COC(=O)N1C=Cc2ccccc2C1C#N (stereo unspecified)
inactive: [4] 95 % of control | [5] 87 % of control
